These molecules were tested on hMPV A2 TN/94-49 (assay: HMPV antiviral assay Method 2 (LLC-MK2 cells with CP-100-356, ATP-Lite)). Conditions: hMPV A2 TN/94-49, LLC-MK2 cells, 4 μM CP-100-356, Method 2.
Type: cell-based
Experimental: In vitro HMPV antiviral activity was evaluated using the clinical isolate A2 strain TN 94-49 (obtained from Dr. John Williams, Vanderbilt University, Tennessee) and LLC-MK2 cells (Millipore Sigma CB_85062804), an immortalized kidney epithelial cell line from Macaca mulatta. Compounds were resuspended in dimethyl sulfoxide (DMSO) at 10 mM, serially diluted and added to a 384-well source plate. Subsequently, the compounds were diluted and transferred onto 384-well assay plates using the Echo-650 automated liquid handling system (Beckman Coulter, Indiana). The test compounds were assessed in duplicate at a top concentration of 200 nM followed by 2.5-fold serial dilutions to give a total of 10 concentration points. DMSO control wells were also included on the assay plates and were either infected or not, acting as positive and negative controls. A2 TN 94-49 virus infections were performed in-suspension with LLC-MK2 cells. The cells were washed twice with PBS and removed from the cell-culture flask with 0.25% trypsin-EDTA (Thermo Fisher Scientific, MA). The trypsin-EDTA was inactivated by resuspending in 2% fetal bovine serum (FBS) and OptiMEM (ThermoFisher Scientific, MA) containing 1% antibiotic-antimycotic. Cells were pelleted by centrifuging for 5 minutes at 800 rpm, the supernatant was removed, and cells were re-suspended and washed in PBS plus 100 μg/mL CaCl2). This step was performed twice. Cells were then re-suspended in serum-free (SF)-OptiMEM containing 4 μg/mL TPCK-Trypsin (Sigma Aldrich, MO), 1% antibiotic-antimycotic (ThermoFisher Scientific, MA), 100 μg/mL CaCl2), and 4 μM of CP-100-356, a P-glycoprotein inhibitor. Cells were counted and seeded at a density of 5,000 cells/well, 12.5 μL/well. Virus infections were done at a multiplicity of infection (MOI) of 0.16 with 12.5 μL added per well. Virus infections were performed in infection media which contained SF-OptiMEM, 100 μg/mL CaCl2) and 1% antibiotic-antimycotic. HMPV viral stocks are suspended in infection media+5% glycerol, thus an equal volume of infection media+5% glycerol was added to uninfected wells to equalize the final % glycerol across all wells of the assay plate. The final concentration of TPCK-trypsin was 2 μg/mL. The final concentration of CP-100-356 was 2 μM. The assay plates were incubated at 37° C., 5% CO2 for 7 days. After 7 days incubation, 12.5 μL of ATP-Lite (PerkinElmer, MA) was added to each well and the raw luminescence values were determined using the Envision 2104 (Perkin Elmer, MA). The average of the raw luminescence values for the cells and virus only positive control wells was subtracted from all conditions tested and the percent cell health was determined by dividing these values by the average of the cells only negative control wells. EC50 values were then calculated by non-linear regression using a four-parameter curve logistic equation. The curve fit model employed was XLFit Dose Response One Site Model 200: y=(A+(B/(1+((x/C)^D)))), where A is the minimum y value, B is the maximum y value, C is the log EC50value, and D is the slope factor.

Row | SMILES | EC50 [nM]
1 | CC(C)c1nc2ccc(C(=O)NC[C@@](O)(c3ccccc3)c3cc4c(c(-c5cc(Cl)c(F)cc5F)n3)OC[C@]4(C)C(N)=O)cc2o1 [Example 224] | > 200
2 | C[C@]1(C(N)=O)COc2c1cc([C@@](O)(CNC(=O)c1ccc3nc(-c4ccccc4)oc3c1)c1ccccc1)nc2-c1cc(Cl)c(F)cc1F [Example 227] | > 200
3 | CNc1cc([C@](O)(CNC(=O)c2cc(OC)c3nn(C4CC4)cc3c2)c2cc3c(c(-c4cc(Cl)c(F)cc4F)n2)OC[C@]3(C)C(N)=O)ccn1 [Example 490] | < 200
4 | C[C@]1(C(N)=O)COc2c1cc([C@@](O)(CNC(=O)c1ccc3nc(Cc4ccccc4)oc3c1)c1ccccc1)nc2-c1cc(Cl)c(F)cc1F [Example 230] | > 200
5 | COc1c(F)ccc(-c2nc([C@@](O)(CNC(=O)c3cc(OC)c4nn(C5(F)CC5)cc4c3)c3ccccc3)cc3c2OC[C@]3(C)C(N)=O)c1Cl [Example 375] | < 200
6 | C[C@]1(C(N)=O)COc2c1cc([C@@](O)(CNC(=O)c1cc(OC3CC3)n3nc(C4CC4)cc3c1)c1cccc(F)c1)nc2-c1cccc(Cl)c1Cl [Example 335] | < 200
7 | Cc1nc2c(OC(F)(F)F)cc(C(=O)NC[C@@](O)(c3ccccc3)c3cc4c(c(-c5cc(Cl)c(F)cc5F)n3)OC[C@]4(C)C(N)=O)cc2s1 [Example 188] | > 200
8 | COc1cc(F)c(F)cc1-c1nc([C@@](O)(CNC(=O)c2cc(OC)c3nn(C4(F)CC4)cc3c2)c2ccccc2)cc2c1OC[C@]2(C)C(N)=O [Example 365] | < 200
9 | COc1cc(C(=O)NCC(O)(c2ccccc2)c2cc3c(c(-c4ccc(F)cc4)n2)OC[C@]3(C)C(N)=O)cc2cn(C3(F)CC3)nc12 (stereo partly shown) [Example 361] | > 200
10 | COc1cc(C(=O)NC[C@@](O)(c2ccccc2)c2cc3c(c(-c4ccc5c(c4)OC(F)(F)O5)n2)OC[C@]3(C)C(N)=O)cc2cc(Cl)cnc12 [Example 202] | < 200
11 | COc1cc(C(=O)NC[C@@](O)(c2ccccc2)c2cc3c(c(-c4cc(Cl)c(F)cc4F)n2)OC[C@]3(C)C(N)=O)cc2c1OCCC2 [Example 93] | > 200
12 | C[C@]1(C(N)=O)COc2c1cc([C@@](O)(CNC(=O)c1ccc3nc(-c4ccc5nc(C(F)F)oc5c4)oc3c1)c1ccccc1)nc2-c1cc(Cl)c(F)cc1F [Example 223] | > 200
13 | Cc1nc2c(OC3CC3)cc(C(=O)NC[C@@](O)(c3ccccc3)c3cc4c(c(-c5cc(Cl)c(F)cc5F)n3)OC[C@]4(C)C(N)=O)cc2o1 [Example 234] | < 200
14 | C[C@]1(C(N)=O)COc2c1cc([C@@](O)(CNC(=O)c1cc(Cl)c3nn(C(F)F)cc3c1)c1ccccc1)nc2-c1cc(Cl)c(F)cc1F [Example 102] | > 200
15 | COc1cc([C@](O)(CNC(=O)c2cc(OC)c3nn(C4CC4)cc3c2)c2cc3c(c(-c4cccc(Cl)c4Cl)n2)OC[C@]3(C)C(N)=O)ccn1 [Example 494] | < 200
16 | COc1cc(C(=O)NC[C@@](O)(c2ccccc2)c2cc3c(c(-c4ccc5c(c4)OC(F)(F)O5)n2)OC[C@]3(C)C(N)=O)cc2oc(C3CC3)nc12 [Example 200] | < 200
17 | COc1cc(C(=O)NC[C@@](O)(c2cnc(C3CC3)nc2)c2cc3c(c(-c4cc(Cl)c(F)cc4F)n2)OC[C@]3(C)C(N)=O)cc2cn(C3CC3)nc12 [Example 478] | < 200
18 | C[C@]1(C(N)=O)COc2c1cc([C@@](O)(CNC(=O)c1ccc3nc(C4CC4)oc3c1)c1ccccc1)nc2-c1cc(F)c(F)cc1F [Example 194] | < 200
19 | C[C@]1(C(N)=O)COc2c1cc([C@@](O)(CNC(=O)c1cc(OC3CC3)n3nc(C4CC4)cc3c1)c1ccccc1)nc2-c1cc(Cl)c(F)cc1F [Example 191] | < 200
20 | COc1cc(C(=O)NC[C@](O)(c2cc3c(c(-c4cc(Cl)c(F)cc4F)n2)OC[C@]3(C)C(N)=O)c2ccn(C)n2)cc2cn(C3CC3)nc12 [Example 480] | < 200
21 | COc1cc(C(=O)NC[C@@](O)(c2ccccc2)c2cc3c(c(-c4cc(C(F)(F)F)ccc4F)n2)OC[C@]3(C)C(N)=O)cc2oc(C3CC3)nc12 [Example 332] | < 200
22 | COc1cc(C(=O)NC[C@@](O)(c2ccnc(F)c2)c2cc3c(c(-c4cccc(Cl)c4Cl)n2)OC[C@]3(C)C(N)=O)cc2cn(C3CC3)nc12 [Example 492] | < 200

Row | SMILES | EC50 [nM]
23 | COc1cc(C(=O)NCC(O)(c2cccc(F)c2)c2cc3c(c(-c4cccc(Cl)c4C#N)n2)OC[C@]3(C)C(N)=O)cc2cn(C3(F)CC3)nc12 (stereo partly shown) [Example 399] | > 200
24 | C[C@]1(C(N)=O)COc2c1cc([C@@](O)(CNC(=O)c1ccc3nc(C4CC4)oc3c1)c1ccccc1)nc2-c1ccc2c(c1)OC(F)(F)O2 [Example 199] | > 200
25 | C[C@]1(C(N)=O)COc2c1cc([C@@](O)(CNC(=O)c1cc(OC3CC3)c3ncc(Cl)cc3c1)c1cccc(F)c1)nc2-c1cccc(Cl)c1Cl [Example 334] | < 200
26 | COc1cc(C(=O)NCC(O)(c2ccccc2)c2cc3c(c(-c4ccc(F)c(Cl)c4)n2)OC[C@]3(C)C(N)=O)cc2cn(C3(F)CC3)nc12 (stereo partly shown) [Example 362] | < 200
27 | C[C@]1(C(N)=O)COc2c1cc([C@@](O)(CNC(=O)c1cc(OC3CC3)c3ncc(Cl)cc3c1)c1ccccc1)nc2-c1cc(C(F)(F)F)c(F)cc1F [Example 315] | < 200
28 | C[C@]1(C(N)=O)COc2c1cc([C@@](O)(CNC(=O)c1ccc3nc(C(F)F)oc3c1)c1ccccc1)nc2-c1cc(Cl)c(F)cc1F [Example 222] | > 200
29 | C[C@]1(C(N)=O)COc2c1cc([C@@](O)(CNC(=O)c1cc(C(F)F)c3nn(C4CC4)cc3c1)c1ccccc1)nc2-c1cc(Cl)c(F)cc1F [Example 229] | < 200
30 | COc1cc(C(=O)NC[C@@](O)(c2ccccc2)c2cc3c(c(-c4ccc5c(c4)OC(F)(F)O5)n2)OC[C@]3(C)C(N)=O)cc2oc(C)nc12 [Example 201] | < 200
31 | Cc1nc2c(OC3CC3)cc(C(=O)NC[C@@](O)(c3ccccc3)c3cc4c(c(-c5cc(Cl)c(F)cc5F)n3)OC[C@]4(C)C(N)=O)cc2s1 [Example 189] | < 200
32 | COc1cc(C(=O)NC[C@@](O)(c2ccccc2)c2cc3c(c(-c4cc(Cl)ccc4F)n2)OC[C@]3(C)C(N)=O)cc2oc(C3CC3)nc12 [Example 331] | < 200
33 | COc1cc(C(=O)NC[C@@](O)(c2cnoc2)c2cc3c(c(-c4cc(Cl)c(F)cc4F)n2)OC[C@]3(C)C(N)=O)cc2cn(C3CC3)nc12 [Example 491] | < 200
34 | C[C@]1(C(N)=O)COc2c1cc([C@@](O)(CNC(=O)c1cc(OC3CC3)c3nc(C4CC4)oc3c1)c1ccccc1)nc2-c1cc(Cl)c(F)cc1F [Example 233] | < 200
35 | COc1cc(C(=O)NC[C@@](O)(c2cccc(F)c2)c2cc3c(c(-c4cccc(Cl)c4Cl)n2)OC[C@]3(C)C(N)=O)cc2cc(Cl)cnc12 [Example 333] | < 200
36 | COc1cccc(-c2nc([C@@](O)(CNC(=O)c3cc(OC)c4nn(C5(F)CC5)cc4c3)c3ccccc3)cc3c2OC[C@]3(C)C(N)=O)c1Cl [Example 374] | < 200
37 | C[C@]1(C(N)=O)COc2c1cc([C@@](O)(CNC(=O)c1cc(OC(F)F)c3nc(C4CC4)oc3c1)c1ccccc1)nc2-c1cc(Cl)c(F)cc1F [Example 216] | < 200
38 | COc1cc(C(=O)NC[C@@](O)(c2ccccc2)c2cc3c(c(-c4cccc(F)c4F)n2)OC[C@]3(C)C(N)=O)cc2cn(C3(F)CC3)nc12 [Example 367] | < 200
39 | COc1cc(OC)c2cc(C(=O)NC[C@@](O)(c3ccccc3)c3cc4c(c(-c5cc(Cl)c(F)cc5F)n3)OC[C@]4(C)C(N)=O)[nH]c2c1 [Example 94] | > 200
40 | C[C@]1(C(N)=O)COc2c1cc([C@@](O)(CNC(=O)c1cc(Cl)c3nc(C4CC4)oc3c1)c1ccccc1)nc2-c1cc(Cl)c(F)cc1F [Example 232] | < 200
41 | C[C@]1(C(N)=O)COc2c1cc([C@@](O)(CNC(=O)c1cc(OC(F)F)c3ncc(Cl)cc3c1)c1ccccc1)nc2-c1cc(Cl)c(F)cc1F [Example 231] | < 200
42 | C[C@]1(C(N)=O)COc2c1cc([C@@](O)(CNC(=O)c1ccc3nc(C4CC4)oc3c1)c1cccc(F)c1)nc2-c1ccc(F)c(Cl)c1Cl [Example 312] | < 200
43 | C[C@]1(C(N)=O)COc2c1cc([C@@](O)(CNC(=O)c1cc(OC3CC3)c3nc(C4CC4)sc3c1)c1ccccc1)nc2-c1cc(Cl)c(F)cc1F [Example 190] | > 200

— patent US12358921B2, “Antiviral heterocyclic compounds” (priority 2022, dated 2025)
